Assay results from patent US11149031B2, “Substituted N-(3-fluoropropyl)-pyrrolidine compounds, processes for their preparation and therapeutic uses thereof” (SANOFI, priority 2016, dated 2021).
Like-named read-outs stand apart in the source and are kept apart here.

Experiments:
[1] = test system: MCF7 cells (breast tumor cells) WT; experiment: Test B: cell proliferation/viability assay (CellTiter-Glo) on MCF7 WT; type: cell-based; conditions: Homo sapiens, MCF7, 168 h, 7 days of compound exposure
Method in brief: (§1)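 Viability is measured in MCF7 cells, either parental or engineered to depend on mutant estrogen receptor. Compounds act for 7 days at final concentrations from 3 to 0.000001 μM in hormone-depleted medium, with ATP luminescence as the read-out.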

[2] = test system: MCF7 cells expressing mutant estrogen receptor Asp 538 Gly; experiment: Test B: cell proliferation/viability assay (CellTiter-Glo) on MCF7 Asp 538 Gly mutant; type: cell-based; conditions: Homo sapiens, MCF7, 168 h, MCF7 cells expressing ER Asp 538 Gly mutant, 7 days of compound exposure, read-out: proliferation MCF7 D538G IC50
Method in brief: as §1

[3] = biological target: His6-ERα298-554 D538G mutant (ERα ligand-binding domain) (Homo sapiens (Human), UniProt P03372, D538G); experiment: Test A: biochemical antagonist activity, LanthaScreen TR-FRET ERα coactivator assay, D538G mutant; conditions: read-out: Antagonism D538G IC50
Method in brief: (§2)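 His6-ERα LBD (aa 298–554), 0.5 nM, with Tb-anti-His6 antibody, 250 nM PGC1a peptide and 3 nM (or 10 nM) estradiol in pH 7.4 potassium phosphate/DTT buffer; incubated with compound overnight at room temperature. IC50 from 4-parameter logistic fit of TR-FRET 520:495 nm ratio.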

ERα in MCF7 cells = ERα in MCF7 cells (Homo sapiens (Human), UniProt P03372); experiment: Test C: estrogen receptor degradation activity, ERα in cell western assay in MCF7 cells; type: cell-based; conditions: for DC50: 4 hours post compound addition, ERα in cell western, read-out: Degradation IC50; for % Degradation at 3 μM: 4 hours, relative to fulvestrant
Method in brief: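 Degradation of ERα was gauged in MCF7 cells after 4 h treatment, by fluorescence immunostaining normalised against DNA content.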

[4] = biological target: His6-ERα298-554 WT (ERα ligand-binding domain) (Homo sapiens (Human), UniProt P03372); experiment: Test A: biochemical antagonist activity, LanthaScreen TR-FRET ERα coactivator assay, WT; conditions: read-out: Antagonism WT IC50
Method in brief: as §2

[5] = biological target: His6-ERα298-554 Y537S mutant (ERα ligand-binding domain) (Homo sapiens (Human), UniProt P03372, Y537S); experiment: Test A: biochemical antagonist activity, LanthaScreen TR-FRET ERα coactivator assay, Y537S mutant; conditions: read-out: Antagonism Y537S IC50
Method in brief: as §2

[6] = test system: MCF7 cells expressing mutant estrogen receptor Tyr 537 Ser; experiment: Test B: cell proliferation/viability assay (CellTiter-Glo) on MCF7 Tyr 537 Ser mutant; type: cell-based; conditions: Homo sapiens, MCF7, 168 h, MCF7 cells expressing ER Tyr 537 Ser mutant, 7 days of compound exposure, read-out: proliferation MCF7 Y537S IC50
Method in brief: as §1

[7] = asterisk (*): protocol using 10 nM estradiol

Sequence of His6-ERα298-554 D538G mutant (ERα ligand-binding domain) (P03372 298-554 D538G): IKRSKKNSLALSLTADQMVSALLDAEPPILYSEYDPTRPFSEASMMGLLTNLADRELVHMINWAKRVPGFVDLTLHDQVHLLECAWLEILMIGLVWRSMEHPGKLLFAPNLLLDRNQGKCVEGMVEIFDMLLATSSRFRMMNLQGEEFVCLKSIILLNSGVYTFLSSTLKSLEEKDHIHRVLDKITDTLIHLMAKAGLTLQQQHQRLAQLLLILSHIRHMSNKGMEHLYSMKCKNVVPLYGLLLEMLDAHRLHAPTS
Sequence of His6-ERα298-554 WT (ERα ligand-binding domain) (P03372 298-554): as the sequence (P03372 298-554 D538G) above, with G241D counted along it
Sequence of His6-ERα298-554 Y537S mutant (ERα ligand-binding domain) (P03372 298-554 Y537S): as the sequence (P03372 298-554 D538G) above, with Y240S, G241D counted along it
Sequence of ERα in MCF7 cells (P03372 whole entry): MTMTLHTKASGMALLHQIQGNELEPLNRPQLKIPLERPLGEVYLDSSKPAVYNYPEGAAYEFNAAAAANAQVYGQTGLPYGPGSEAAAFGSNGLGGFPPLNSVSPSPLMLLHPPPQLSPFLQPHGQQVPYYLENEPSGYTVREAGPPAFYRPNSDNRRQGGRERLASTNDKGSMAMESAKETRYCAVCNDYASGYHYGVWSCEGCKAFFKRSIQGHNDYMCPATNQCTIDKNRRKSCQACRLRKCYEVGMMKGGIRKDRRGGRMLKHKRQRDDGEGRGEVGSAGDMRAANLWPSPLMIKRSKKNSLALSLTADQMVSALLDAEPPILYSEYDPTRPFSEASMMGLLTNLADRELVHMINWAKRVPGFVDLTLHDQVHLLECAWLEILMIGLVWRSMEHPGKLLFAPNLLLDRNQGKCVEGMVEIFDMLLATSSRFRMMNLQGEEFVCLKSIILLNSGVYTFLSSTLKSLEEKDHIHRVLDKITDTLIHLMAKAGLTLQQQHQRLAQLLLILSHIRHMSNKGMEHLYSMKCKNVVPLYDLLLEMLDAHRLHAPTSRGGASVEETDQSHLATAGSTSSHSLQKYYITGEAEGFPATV

Row | SMILES | IC50 [1] | IC50 [2] | IC50 [3, 7] | DC50 (ERα in MCF7 cells) | % Degradation at 3 μM (ERα in MCF7 cells) | IC50 [4, 7] | IC50 [5, 7] | IC50 [6] | IC50 ([3]; protocol with 3 nM estradiol) | IC50 ([4]; protocol with 3 nM estradiol) | IC50 ([5]; protocol with 3 nM estradiol)
1 | [O-][S+]1CCC(c2ccc(OC(F)(F)F)cc2)=C(c2ccc(O[C@H]3CCN(CCCF)C3)cc2)c2ccc(O)cc21 (stereo partly drawn) [Example 225, 5-[4-[(3S)-1-(3-fluoropropyl)pyrrolidin-3-yl]oxyphenyl]-1-oxo-4-[4-(trifluoromethoxy)phenyl]-2,3-dihydro-benzothiepin-8-ol] | 18 nM | 36 nM | > 4000 nM | 6 nM | 82% | 750 nM | > 4000 nM | 249 nM |  |  | 
2 | Cc1ccc(C2=C(c3ccc(O[C@H]4CCN(CCCF)C4)nc3)c3ccc(O)cc3CCC2)c(F)c1 [Example 237, 6-(2-fluoro-4-methyl-phenyl)-5-[6-[(3S)-1-(3-fluoropropyl)pyrrolidin-3-yl]oxy-3-pyridyl]-8,9-dihydro-7H-benzo[7]annulen-2-ol] | 0.3 nM | 0.7 nM | 7 nM | 0.2 nM | 92% | 0.6 nM | 5 nM | 5 nM |  |  | 
3 | Oc1ccc2c(c1)CCCC(c1ccc(Cl)cc1Cl)=C2c1cnc(O[C@H]2CCN(CCCF)C2)nc1 [Example 238, 6-(2,4-dichlorophenyl)-5-[2-[(3S)-1-(3-fluoropropyl)pyrrolidin-3-yl]oxypyrimidin-5-yl]-8,9-dihydro-7H-benzo[7]annulen-2-ol] | 0.3 nM | 0.5 nM | 59 nM | 0.5 nM | 87% | 3 nM | 33 nM | 3 nM |  |  | 
4 | Oc1ccc2c(c1)CCCC(c1ccc(Cl)cc1Cl)=C2c1ccc(O[C@H]2CCN(CCCF)C2)nc1 [Example 239, 6-(2,4-dichlorophenyl)-5-[6-[(3S)-1-(3-fluoropropyl)pyrrolidin-3-yl]oxy-3-pyridyl]-8,9-dihydro-7H-benzo[7]annulen-2-ol] | 0.3 nM | 1 nM | 13 nM | 0.6 nM | 87% | 13 nM | 9 nM | 3 nM |  |  | 
5 | CCOc1ccc(C2=C(c3ccc(O[C@H]4CCN(CCCF)C4)nc3)c3ccc(O)cc3CCC2)c(F)n1 [Example 240, 6-(6-ethoxy-2-fluoro-3-pyridyl)-5-[6-[(3S)-1-(3-fluoropropyl)pyrrolidin-3-yl]oxy-3-pyridyl]-8,9-dihydro-7H-benzo[7]annulen-2-ol] | 0.3 nM | 0.5 nM | 6 nM | 0.3 nM | 89% | 6 nM | 4 nM | 3 nM |  |  | 
6 | Oc1ccc2c(c1)CCCC(c1ccc(OC(F)F)c(F)c1)=C2c1ccc(O[C@H]2CCN(CCCF)C2)nc1 [Example 241, 6-[4-(difluoromethoxy)-3-fluoro-phenyl]-5-[6-[(3S)-1-(3-fluoropropyl)pyrrolidin-3-yl]oxy-3-pyridyl]-8,9-dihydro-7H-benzo[7]annulen-2-ol] | 0.1 nM | 0.2 nM | 27 nM | 0.2 nM | 85% | 1 nM | 16 nM | 2 nM |  |  | 
7 | CC1(C)Cc2cc(C3=C(c4ccc(O[C@H]5CCN(CCCF)C5)nc4)c4ccc(O)cc4CCC3)ccc2N1 [Example 242, 6-(2,2-dimethylindolin-5-yl)-5-[6-[(3S)-1-(3-fluoropropyl)pyrrolidin-3-yl]oxy-3-pyridyl]-8,9-dihydro-7H-benzo[7]annulen-2-ol] | 0.7 nM | 2 nM | 9 nM | 0.8 nM | 83% | 1 nM | 7 nM | 11 nM |  |  | 
8 | Oc1ccc2c(c1)CCCC(c1ccc(Cl)c(F)c1)=C2c1cnc(O[C@H]2CCN(CCCF)C2)cn1 [Example 243, 6-(4-chloro-3-fluoro-phenyl)-5-[5-[(3S)-1-(3-fluoropropyl)pyrrolidin-3-yl]oxypyrazin-2-yl]-8,9-dihydro-7H-benzo[7]annulen-2-ol] | 0.2 nM | 0.5 nM | 386 nM | 0.3 nM | 91% | 12 nM | 179 nM | 3 nM |  |  | 
9 | Cc1ccc(C2=C(c3cnc(O[C@H]4CCN(CCCF)C4)nc3)c3ccc(O)cc3CCC2)c(F)c1 [Example 244, 6-(2-fluoro-4-methyl-phenyl)-5-[2-[(3S)-1-(3-fluoropropyl)pyrrolidin-3-yl]oxypyrimidin-5-yl]-8,9-dihydro-7H-benzo[7]annulen-2-ol] | 0.9 nM | 2 nM | 67 nM | 0.4 nM | 92% | 3 nM | 34 nM | 6 nM |  |  | 
10 | Oc1ccc2c(c1F)CCCC(c1ccc(Cl)cc1Cl)=C2c1ccc(O[C@H]2CCN(CCCF)C2)nc1 [Example 245, 6-(2,4-dichlorophenyl)-1-fluoro-5-[6-[(3S)-1-(3-fluoropropyl)pyrrolidin-3-yl]oxy-3-pyridyl]-8,9-dihydro-7H-benzo[7]annulen-2-ol] | 0.3 nM | 0.1 nM |  | 0.5 nM | 87% |  |  | 3 nM | 4 nM | 0.4 nM | 3 nM
11 | CCOc1ccc(C2=C(c3cnc(O[C@H]4CCN(CCCF)C4)nc3)c3ccc(O)cc3CCC2)c(F)c1F [Example 246, 6-(4-ethoxy-2,3-difluoro-phenyl)-5-[2-[(3S)-1-(3-fluoropropyl)pyrrolidin-3-yl]oxypyrimidin-5-yl]-8,9-dihydro-7H-benzo[7]annulen-2-ol] | 0.4 nM | 0.4 nM | 42 nM | 0.5 nM | 82% | 2 nM | 26 nM | 7 nM |  |  | 
12 | O=C(O)c1ccc2c(c1)CCCC(c1ccc(Cl)cc1Cl)=C2c1ccc(O[C@H]2CCN(CCCF)C2)nc1 [Example 247, 6-(2,4-dichlorophenyl)-5-[6-[(3S)-1-(3-fluoropropyl)pyrrolidin-3-yl]oxy-3-pyridyl]-8,9-dihydro-7H-benzo[7]annulene-2-carboxylic acid] | 0.2 nM | 0.4 nM | 136 nM | 0.2 nM | 93% | 5 nM | 72 nM | 6 nM |  |  | 
13 | O=C(O)c1ccc2c(c1)CCCC(c1ccc(OC(F)F)c(F)c1)=C2c1ccc(O[C@H]2CCN(CCCF)C2)nc1 [Example 248, 6-[4-(difluoromethoxy)-3-fluoro-phenyl]-5-[6-[(3S)-1-(3-fluoropropyl)pyrrolidin-3-yl]oxy-3-pyridyl]-8,9-dihydro-7H-benzo[7]annulene-2-carboxylicacid] | 0.7 nM | 1 nM | 3440 nM | 0.7 nM | 95% | 141 nM | 1920 nM | 15 nM |  |  | 
14 | Oc1ccc2c(c1F)CCCC(c1ccc(OC(F)F)c(F)c1)=C2c1ccc(O[C@H]2CCN(CCCF)C2)nc1 [Example 249, 6-[4-(difluoromethoxy)-3-fluoro-phenyl]-1-fluoro-5-[6-[(3S)-1-(3-fluoropropyl)pyrrolidin-3-yl]oxy-3-pyridyl]-8,9-dihydro-7H-benzo[7]annulen-2-ol] | 0.3 nM | 0.6 nM | 24 nM | 0.3 nM | 87% | 1 nM | 14 nM | 4 nM |  |  | 
15 | Cc1cc(C2=C(c3ccc(O[C@H]4CCN(CCCF)C4)nc3)c3ccc(O)c(F)c3CCC2)ccc1Cl [Example 250, 6-(4-chloro-3-methyl-phenyl)-1-fluoro-5-[6-[(3S)-1-(3-fluoropropyl)pyrrolidin-3-yl]oxy-3-pyridyl]-8,9-dihydro-7H-benzo[7]annulen-2-ol] | 0.3 nM | 0.3 nM | 113 nM | 0.5 nM | 87% | 7 nM | 70 nM | 4 nM |  |  | 
